For series [1], the system named is Enterovirus D68/US/KY/14-18953. Briefly: Antiviral assay, Enterovirus D68 strain US/KY/14-18953 in RD cells. The series is classed as cell-based.
Series [2] concerns Enterovirus 71. In words: microbe, parasite or virus in culture. The format is cell-based. To be noted: read-out: EC50 EV71.
Series [3] has as its system Enterovirus D68/Fermon. Briefly: Antiviral assay, Enterovirus D68 strain Fermon in RD cells. The series is classed as cell-based.
Series [4] relates to RD cells.
Series [5] deals with Echovirus 7. In words: microbe, parasite or virus in culture. The series is classed as cell-based. The conditions noted are these: read-out: EC50 ECHO07.
Series [6] deals with LLC cells.
In series [7] the test system is Poliovirus 3. In words: microbe, parasite or virus in culture. The series is classed as cell-based. The conditions noted are these: read-out: EC50 PV3.
Series [8] has as its system Coxsackievirus B3-H3. Briefly: microbe, parasite or virus in culture. The format is cell-based. To be noted: read-out: EC50 CVB3-H3.
In series [9] the test system is Coxsackievirus B1. In words: microbe, parasite or virus in culture. To be noted: read-out: EC50 CVB1. The series is classed as cell-based.
In series [10] the test system is HeLa-RW cells.
Series [11] relates to Coxsackievirus B2. Briefly: microbe, parasite or virus in culture. The series is classed as cell-based. The conditions noted are these: read-out: EC50 CVB2.
Series [12] concerns Poliovirus 1. In words: microbe, parasite or virus in culture. The format is cell-based. To be noted: read-out: EC50 PV1.
Series [13] relates to Coxsackievirus B4. In words: microbe, parasite or virus in culture. The conditions noted are these: read-out: EC50 CVB4. The format is cell-based.
The test system of series [14] is Coxsackievirus B5. In words: microbe, parasite or virus in culture. The series is classed as cell-based. To be noted: read-out: EC50 CVB5.
Series [15] relates to Echovirus 6. In words: microbe, parasite or virus in culture. The format is cell-based. To be noted: read-out: EC50 ECHO06.
Series [16] has as its system Coxsackievirus A9. Briefly: microbe, parasite or virus in culture. The format is cell-based. To be noted: read-out: EC50 COX A9.
For series [17], the system named is Enterovirus D68/US/Mo/14-18949. Briefly: Antiviral assay, Enterovirus D68 strain US/Mo/14-18949 in RD cells. The series is classed as cell-based.

Values joined by “and” are separate entries in the source; they are usually repeats but may differ in a detail not shown here. Identical values can stand only once. Where only a bound is given, the exact number is not on record here.

Consider `CC(C)n1ncc2c(C(=O)Nc3cc(C(N)=O)ccc3F)cc(-c3cccs3)nc21` [JX-073], for which the half-maximal effective concentration (EC50) in series [1] is below 400 nM; in [2], 500 nM; in series [3] it was below 400 nM; in series [5], 1200 nM; in series [7], 5 µM and 6.3 µM; in series [8], 800 nM. Besides, the EC50 in [9] stood at 600 nM; in series [11], 1200 nM; in [12] it was 5 µM. Also, the results for the CC50 in series [4], in series [6] and in [10] were 25 µM, 25 µM and 18.8 µM, respectively.
Regarding `CC(C)n1ncc2c(C(=O)Nc3cccnc3)cc(-c3ccsc3)nc21` [JX-060], the EC50 in series [2] was 2400 nM; in series [13], 600 nM; in series [7], above 10 µM; in [8], 600 nM; in series [14], 600 nM; in [9], 600 nM. Besides, the EC50 is 600 nM in [11] and above 10 µM in [12]. Besides, the 50% cytotoxic concentration (CC50) in [6] amounted to 37 µM; in series [10], 18 µM.
As to `CC(C)n1ncc2c(C(=O)Nc3ccc(F)cc3)cc(C3CC3)nc21` [JX-038], the 50% effective concentration (EC50) in series [15] is 3900 nM; in series [2], 3200 ± 100 nM; in series [7] it was above 10 µM; in [8] it was 4700 nM; in series [9] it was 4700 nM; in [16], 3000 nM. Besides, the figures for the EC50 in [11] and in [12] were 4700 nM and above 10 µM, respectively. Further, the half-maximal cytotoxic concentration (CC50) in series [6] turned out to be 12.5 µM; in series [10], 10 µM.
As to `CC(C)n1ncc2c(C(=O)Nc3c(F)cc(F)cc3F)cc(-c3cccs3)nc21` [JX-020], the half-maximal effective concentration (EC50) is 2400 nM in series [15]; 3000 nM in [2]; 3100 nM in series [13]; above 25 µM in series [7]; 1800 ± 700 nM in series [8]; 2300 nM in [14]. In addition, the 50% effective concentration (EC50) is 6000 nM in series [9], 2400 nM in [16] and above 25 µM in series [12]. In addition, the half-maximal cytotoxic concentration (CC50) in [6] and in [10] was above 200 µM each time.
`CC(C)n1ncc2c(C(=O)Nc3cccc(F)c3F)cc(-c3cccs3)nc21` [JX-019]: the EC50 in series [15] was 2000 ± 600 nM; in [2] it was 3000 nM; in series [7] it was above 25 µM; in [8], 2700 ± 400 nM; in series [12] it was above 25 µM. Also, the CC50 in [6] is 75 µM; in [10], above 200 µM.
As to `CC(C)n1ncc2c(C(=O)Nc3ccncn3)cc(-c3cccs3)nc21` [JX-043], the EC50 in [15] is 200 nM; in series [2], 500 ± 100 nM; in [5], 700 nM; in [13], 500 nM; in series [7] it was above 10 µM; in series [8] it was 600 nM. Further, the EC50 in series [14] was 600 nM; in [9], 600 nM; in series [16], 500 nM; in [11], 600 nM; in [12] it was above 10 µM. In addition, the half-maximal cytotoxic concentration (CC50) in series [6] came out at 50 µM; in series [10] it was 20 µM.
As to `CC(C)n1ncc2c(C(=O)Nc3ccc(F)cc3)cc(-c3ccco3)nc21` [JX-026], the EC50 in series [15] turned out to be 2400 nM; in series [1], 1300 ± 200 nM; in series [17], 1000 ± 20 nM; in [2], 2600 ± 300 nM; in [3], 1200 nM; in series [13] it was 3300 nM. Also, the EC50 in series [7] was above 25 µM; in series [8] it was 2400 nM; in series [14], 3300 nM; in series [9], 3300 nM; in series [11], 3300 nM; in series [12] it was above 25 µM. Besides, the CC50 in [4], in series [6] and in series [10] was above 200 µM in each case.
Regarding `CC(C)n1ncc2c(C(=O)Nc3ccncc3)cc(-c3cccs3)nc21` [JX-042], the EC50 in series [15] was 200 nM; in [2] it was 400 nM; in series [13] it was 600 nM; in series [7] it was above 10 µM; in series [8], 600 nM; in series [14] it was 600 nM. Also, the EC50 in series [9] was 600 nM; in [16] it was 500 nM; in [11] it was 600 nM; in [12], above 10 µM. Further, the values for the 50% cytotoxic concentration (CC50) in [6] and in series [10] were 6.25 µM and 6 µM, respectively.
Regarding `CC(C)n1ncc2c(C(=O)Nc3cc(F)ccc3F)cc(-c3cccs3)nc21` [JX-018], the 50% effective concentration (EC50) is 2600 ± 300 nM in series [15]; 3500 nM in series [2]; above 25 µM in series [7]; 2700 ± 400 nM in series [8]; 2400 nM in [16]; above 25 µM in series [12]. The 50% cytotoxic concentration (CC50) in [6] is 100 µM; in [10], above 200 µM.
For the compound `CC(C)n1ncc2c(C(=O)N3CCc4cccnc43)cc(-c3cccs3)nc21` [JX-076], the half-maximal effective concentration (EC50) in series [1] is 4700 nM; in series [17], 4000 nM; in series [2], 12500 nM; in series [3], 4000 nM; in [7], above 10 µM; in [8] it was 9400 nM. In series [12], the half-maximal effective concentration (EC50) is above 10 µM. In addition, the values for the 50% cytotoxic concentration (CC50) in [4], in series [6] and in series [10] were 45 µM, 50 µM and 37.5 µM, respectively.
Take `CC(C)n1ncc2c(C(=O)Nc3ccccc3S(N)(=O)=O)cc(-c3cccs3)nc21` [JX-033]: the half-maximal effective concentration (EC50) in series [15] was 2400 nM; in series [2], 2500 ± 700 nM; in series [13], 3100 ± 100 nM; in [7], above 25 µM; in series [8] it was 2600 ± 400 nM; in [14], 2700 ± 600 nM. Further, the concentration for a half-maximal effect (EC50) is 3900 ± 1100 nM in [9], 2400 nM in series [16], 3900 ± 1100 nM in series [11] and above 25 µM in series [12]. The CC50 in [6] turned out to be 25 µM; in series [10], 10 µM.
Regarding `CC(C)n1ncc2c(C(=N)Nc3ccc(F)cc3)cc(-c3cccs3)nc21` [JX-067], the EC50 in series [1] is 2270 ± 230 nM; in series [17] it was 1270 ± 120 nM; in series [3] it was 1600 nM. Also, the values for the CC50 in [4] and in series [10] were 100 µM and 18 µM, respectively.
Regarding `CC(C)n1ncc2c(C(=O)Nc3ccccn3)cc(-c3ccccc3)nc21` [JX-070], the EC50 in series [1] was 700 nM; in series [2] it was 700 nM; in series [3], 350 nM; in series [5], 2300 nM; in series [7], above 10 µM; in [8], 1600 nM. In addition, the EC50 in series [9] is 1200 nM; in series [11] it was 1600 nM; in [12] it was above 10 µM. Further, the CC50 in series [4] came out at 12.5 µM; in series [6], 12.5 µM; in [10] it was 18.8 µM.
For the compound `CC(C)n1ncc2c(C(=N)Nc3cccnc3)cc(-c3cccs3)nc21` [JX-065], the EC50 in [1] came to 6300 nM; in series [17], 4700 ± 1600 nM; in series [3], 6300 nM. Besides, in series [4], it took 75 µM to reach half-maximal cytotoxicity (CC50).
Turning to `CC(C)n1ncc2c(C(=O)N3CCc4cc(F)ccc43)cc(-c3cccs3)nc21` [JX-048], the EC50 in series [15] worked out at 1100 nM; in series [1], 4100 ± 1200 nM; in series [17], 2100 ± 600 nM; in series [2], 1300 ± 200 nM; in [3], 2800 ± 450 nM; in series [13], 1200 nM. In addition, the concentration for a half-maximal effect (EC50) in series [7] was above 10 µM; in [8], 1500 nM; in [14] it was 1200 nM; in series [9] it was 1500 nM; in series [16], 1200 nM; in series [11], 1500 nM. In series [12], the EC50 was above 10 µM. For the same compound, the results for the 50% cytotoxic concentration (CC50) in series [4], in series [6] and in series [10] were above 200 µM, above 200 µM and 20 µM, respectively.
For the compound `CC(C)n1ncc2c(C(=O)Nc3cccc(S(N)(=O)=O)c3)cc(C3CC3)nc21` [JX-055], the EC50 is 730 ± 120 nM in series [1], 400 ± 200 nM in series [17] and 700 ± 200 nM in series [3]. In series [4], this compound came in with a CC50 above 200 µM.
Turning to `CC(C)n1ncc2c(C(=O)Nc3cc(F)cc(F)c3)cc(-c3cccs3)nc21` [JX-016], the EC50 is above 10000 nM in [13]; above 10 µM in series [7]; above 10000 nM in [8]; above 10000 nM in series [14]; above 10000 nM in series [9]; above 10000 nM in series [11]. In series [12], the concentration for a half-maximal effect (EC50) was above 10 µM.
`CC(C)n1ncc2c(C(=O)Nc3ccc(F)cn3)cc(-c3cccs3)nc21` [JX-075]: the EC50 was below 400 nM in [1]; below 400 nM in series [17]; 1200 nM in series [2]; below 400 nM in [3]; above 10 µM in series [7]; 700 ± 100 nM in [8]. Moreover, the concentration giving a half-maximal response (EC50) in series [12] was above 10 µM. The half-maximal cytotoxic concentration (CC50) in series [4] is 25 µM; in series [6] it was above 200 µM; in series [10], 37.5 µM.
Consider `CC(C)(C)n1ncc2c(C(=O)Nc3ccccc3F)cc(-c3cccs3)nc21` [JX-013], for which the EC50 in [1] is 1800 ± 440 nM; in series [17], 1070 ± 230 nM; in series [3] it was 1330 ± 230 nM. Also, the CC50 in series [4] was above 200 µM.
For `CC(C)n1ncc2c(C(=O)Nc3ccccc3F)cc(-c3nccs3)nc21` [JX-007], the EC50 in series [1] was 1200 nM; in series [17], 660 ± 100 nM; in series [3], 800 ± 280 nM. Moreover, the CC50 in series [4] is above 200 µM.

For orientation: EC50 means the concentration at which the effect is half-maximal. Broadly, the CC50 is the concentration at which the toxic effect on the cells reaches its halfway point.

Values taken from patent US11787799B2 (priority 2015, dated 2023).
